How the values were obtained:
[1] = target: T1, PI3Kα (wild-type), P110/P85α (Homo sapiens, UniProt P42336); assay: PI3 Kinase TR-FRET assay, PI3Kα (wild-type); assay type: biochemical
T1 construct: made in house; host or cells: SF9 insect cells
Outline: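 Sf9-expressed His-purified P110/P85α (5 ng) preincubated 60 min RT with compound and PIP2 in buffer with 40 mM MgCl2, 5 mM DTT; reaction started with ATP (PIP2 and ATP both 10 μM), 30 min RT. PIP3 detected by TR-FRET displacement, 665/615 nm ratio; IC50 from dose-response curves.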

mTOR kinase = target: T2, mTOR kinase (Homo sapiens, UniProt P42345); assay: mTOR kinase TR-FRET assay; assay type: biochemical; settings: read-out: mTO R
T2 construct: purchased Millipore, USA
Outline: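 Compounds preincubated 60 min with mTOR (5 ng) in HEPES pH 7.5, EGTA, MnCl2; ULight-p70 S6K Thr389 peptide (50 nM) and ATP (20 μM) then added, 60 min at room temperature. EDTA-stopped, Eu-anti-phospho antibody detection by TR-FRET (665/615 nm); IC50 from variable-slope sigmoidal fit.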

[2] = tested on: pS6RP(S235/236), PC3 cells; assay: In-cell Western assay, pS6RP(S235/236) in PC3 cells; assay type: cell-based, human; settings: Homo sapiens, PC-3, In-cell Western
Experimental: Cells from human prostate cancer cell line PC3 (American Type Culture Collection (ATCC), Manassas, Va. 20108 USA) were seeded at an optimal density of 22,000 cell/well in 96-well plates containing Ham's F12K medium (90 μL) and incubated overnight. The compound dilutions were carried out in 100% DMSO followed by a dilution in the medium. Test compounds were added in serial dilutions to the wells and incubated for 2 h. The cells were washed and fixed with 4% paraformaldehyde. After incubation at room temperature for 1 h in the dark, blocking was done for 2 h at room temperature. Primary antibodies for phosphorylated (p) AKT(5473) (phosphorylated at serine 473), pAKT(T308) (phosphorylated at threonine 308) and for pS6RP(S235/236) (phosphorylated at serine 235/236) (commercially available from Cell Signaling Technology®, whose protocol was followed for the in-cell western assay, were diluted to the required concentration and added to the corresponding wells followed by overnight incubation at 4° C. Eu-labeled rabbit (PE) (Perkin-Elmer USA catalog #AD0106) secondary antibody was added and incubated for 2 h at room temperature. Delfia® enhancement solution (cat #1244-105, Perkin Elmer USA) was subsequently added to the plate before taking the reading at 615 nm with excitation wavelength of 340 nm, after which 0.5 μg/mL of Hoechst® 33258 dye (Catalog #86140-5, Sigma) was added to the plate and fluorescence emission was read at 460 nm with 355 nm excitation, to evaluate the correction factor. IC50 values were calculated using a sigmoidal dose-response curve fit in GraphPad Prism® v5 software.

PC3 cells = assay: XTT assay for cell viability, PC3 cells; assay type: cell-based, human; settings: Homo sapiens, PC-3, cell viability
Outline: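 PC3 cells seeded at 1000 cells/well, grown 24 h, then exposed to serial dilutions of compound for 96 h. Viability read by XTT dye at 37° C, absorbance 465 nm. EC50 from sigmoidal dose-response fit.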

T1 sequence (P42336 whole entry): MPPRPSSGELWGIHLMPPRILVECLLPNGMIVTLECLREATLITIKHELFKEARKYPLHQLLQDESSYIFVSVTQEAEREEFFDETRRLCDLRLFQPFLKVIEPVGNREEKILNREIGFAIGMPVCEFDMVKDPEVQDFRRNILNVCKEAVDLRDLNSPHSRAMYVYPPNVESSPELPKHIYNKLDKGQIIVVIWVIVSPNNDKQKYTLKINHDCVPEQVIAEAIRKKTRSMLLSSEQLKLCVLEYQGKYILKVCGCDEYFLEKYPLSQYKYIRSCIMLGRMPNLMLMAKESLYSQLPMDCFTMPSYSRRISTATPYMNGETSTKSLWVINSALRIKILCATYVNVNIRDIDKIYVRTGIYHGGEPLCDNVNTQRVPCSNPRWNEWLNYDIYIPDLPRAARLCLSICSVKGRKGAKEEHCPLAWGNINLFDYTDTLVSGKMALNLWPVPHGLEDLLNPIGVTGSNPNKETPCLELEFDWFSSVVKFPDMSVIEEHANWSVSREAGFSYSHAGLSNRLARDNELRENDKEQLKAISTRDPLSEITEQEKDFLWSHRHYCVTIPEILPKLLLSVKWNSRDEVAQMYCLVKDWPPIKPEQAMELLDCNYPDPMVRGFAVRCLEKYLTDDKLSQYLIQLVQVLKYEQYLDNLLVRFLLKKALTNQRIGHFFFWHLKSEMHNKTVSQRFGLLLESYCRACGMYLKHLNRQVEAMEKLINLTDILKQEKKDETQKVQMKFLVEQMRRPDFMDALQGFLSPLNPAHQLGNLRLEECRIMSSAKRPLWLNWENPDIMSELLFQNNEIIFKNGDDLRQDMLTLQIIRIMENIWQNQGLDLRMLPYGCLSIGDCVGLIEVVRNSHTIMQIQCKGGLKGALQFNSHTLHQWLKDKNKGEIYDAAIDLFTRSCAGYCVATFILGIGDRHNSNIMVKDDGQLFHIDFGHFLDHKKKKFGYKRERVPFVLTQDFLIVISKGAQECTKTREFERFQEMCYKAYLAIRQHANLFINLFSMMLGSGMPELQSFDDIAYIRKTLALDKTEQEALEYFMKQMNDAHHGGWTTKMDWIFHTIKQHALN
T1 sequence (P27986 whole entry partner): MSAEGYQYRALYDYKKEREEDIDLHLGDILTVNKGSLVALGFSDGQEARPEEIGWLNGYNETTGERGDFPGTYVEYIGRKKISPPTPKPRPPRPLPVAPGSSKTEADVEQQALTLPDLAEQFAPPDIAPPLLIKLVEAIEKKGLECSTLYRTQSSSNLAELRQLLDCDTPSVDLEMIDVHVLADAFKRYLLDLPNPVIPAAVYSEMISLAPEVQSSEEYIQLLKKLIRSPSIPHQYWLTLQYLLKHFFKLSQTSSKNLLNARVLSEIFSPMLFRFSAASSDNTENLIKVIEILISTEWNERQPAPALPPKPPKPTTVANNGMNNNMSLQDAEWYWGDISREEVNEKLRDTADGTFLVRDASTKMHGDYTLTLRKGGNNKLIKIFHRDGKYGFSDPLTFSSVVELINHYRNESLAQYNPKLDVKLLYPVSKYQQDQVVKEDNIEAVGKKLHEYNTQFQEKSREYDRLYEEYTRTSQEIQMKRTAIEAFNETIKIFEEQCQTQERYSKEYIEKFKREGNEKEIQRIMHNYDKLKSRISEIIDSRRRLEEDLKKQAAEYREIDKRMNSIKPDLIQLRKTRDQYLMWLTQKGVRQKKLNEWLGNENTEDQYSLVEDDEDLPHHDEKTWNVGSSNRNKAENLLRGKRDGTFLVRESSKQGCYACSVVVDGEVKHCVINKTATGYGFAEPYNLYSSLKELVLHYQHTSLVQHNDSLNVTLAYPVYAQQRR

SMILES | IC50 [1] [nM] | IC50 (mTOR kinase) [nM] | IC50 [2] [nM] | IC50 (PC3 cells) [nM]
COc1cccc(-c2ccc3c(N4CCOCC4)nc(-c4ccc(NC(=O)Nc5ccc(C(=O)N(C)C)cc5)cc4)nc3c2)n1 [Example 95, 4-(3-(4-(7-(6-methoxypyridin-2-yl)-4-morpholino-quinazolin-2-yl)phenyl)ureido)-N,N-dimethyl-benzamide] | 50 to 200 | 50 to 200 | 501 to 5000 | < 100
CN(C)C(=O)c1ccc(NC(=O)Nc2ccc(-c3nc(N4CCOCC4)c4ncc(-c5ccnnc5)cc4n3)cc2)cc1 [Example 96, N,N-dimethyl-4-(3-(4-(4-morpholino-7-(pyridazin-4-yl)pyrido[3,2-d]pyrimidin-2-yl)phenyl)ureido)-benzamide] | < 50 | < 50 | 201 to 10000 | 201 to 10000
CN(C)C(=O)c1ccc(NC(=O)Nc2ccc(-c3nc(N4CCOCC4)c4ccc(-c5cnn(C)c5)cc4n3)cc2F)cc1 [Example 97, 4-(3-(2-fluoro-4-(7-(1-methyl-1H-pyrazol-4-yl)-4-morpholino-quinazolin-2-yl)phenyl)ureido)-N,N-dimethyl-benzamide] | < 50 | < 50 | 201 to 10000 | 201 to 10000
CN(C)C(=O)c1ccc(NC(=O)Nc2ccc(-c3nc(N4CCOCC4)c4ccc(-c5ccnnc5)cc4n3)cc2F)cc1 [Example 98, 4-(3-(2-fluoro-4-(4-morpholino-7-(pyridazin-4-yl)quinazolin-2-yl)phenyl)ureido)-N,N-dimethyl-benzamide] | 50 to 200 | < 50 | 201 to 10000 | 201 to 10000
CN(C)C(=O)c1ccc(NC(=O)Nc2ccc(-c3nc(N4CCOCC4)c4cc(F)c(-c5cncnc5)cc4n3)cc2F)cc1 [Example 99, 4-(3-(2-fluoro-4-(6-fluoro-4-morpholino-7-(pyrimidin-5-yl)quinazolin-2-yl)phenyl)ureido)-N,N-dimethyl-benzamide] | < 50 | < 50 | 201 to 10000 | 201 to 10000
Cc1ccncc1-c1ccc2c(N3CCOCC3)nc(-c3ccc(NC(=O)Nc4ccc(C(=O)N(C)C)cc4)c(F)c3)nc2c1 [Example 100, 4-(3-(2-fluoro-4-(7-(4-methylpyridin-3-yl)-4-morpholino-quinazolin-2-yl)phenyl)ureido)-N,N-dimethyl-benzamide] | < 50 | < 50 | 201 to 10000 | 201 to 10000
CN(C)C(=O)c1ccc(NC(=O)Nc2ccc(-c3nc(N4CCOCC4)c4ncc(-c5cncnc5)cc4n3)cc2F)cc1 [Example 101, 4-(3-(2-fluoro-4-(4-morpholino-7-(pyrimidin-5-yl)pyrido[3,2-d]pyrimidin-2-yl)phenyl)ureido)-N,N-dimethyl-benzamide] | < 50 | < 50 | 201 to 10000 | 201 to 10000
CN(C)C(=O)c1ccc(NC(=O)Nc2ccc(-c3nc(N4CCOCC4)c4ncc(-c5cccnc5)cc4n3)cc2F)cc1 [Example 102, 4-(3-(2-fluoro-4-(4-morpholino-7-(pyridin-3-yl)pyrido[3,2-d]pyrimidin-2-yl)phenyl)ureido)-N,N-dimethyl-benzamide] | < 50 | < 50 | 201 to 10000 | 201 to 10000
CN(C)C(=O)c1ccc(NC(=O)Nc2ccc(-c3nc(N4CCOCC4)c4ccc(-c5cccnc5)cc4n3)cc2F)cc1 [Example 103, 4-(3-(2-fluoro-4-(4-morpholino-7-(pyridin-3-yl)quinazolin-2-yl)phenyl)ureido)-N,N-dimethyl-benzamide] | < 50 | < 50 | 201 to 10000 | 201 to 10000
COc1ncc(-c2ccc3c(N4CCOCC4)nc(-c4ccc(NC(=O)Nc5ccc(C(=O)N(C)C)cc5)c(F)c4)nc3c2)cn1 [Example 105, 4-(3-(2-fluoro-4-(7-(2-methoxypyrimidin-5-yl)-4-morpholino-quinazolin-2-yl)phenyl)ureido)-N,N-dimethyl-benzamide] | 50 to 200 | < 50 | 201 to 10000 | 201 to 10000
CN(C)C(=O)c1ccc(NC(=O)Nc2ccc(-c3nc(N4CCOCC4)c4ncc(-c5cccnc5F)cc4n3)cc2F)cc1 [Example 106, 4-(3-(2-fluoro-4-(7-(2-fluoropyridin-3-yl)-4-morpholino-pyrido[3,2-d]pyrimidin-2-yl)phenyl)ureido)-N,N-dimethyl-benzamide] | < 50 | < 50 | 201 to 10000 | 201 to 10000
CN(C)C(=O)c1ccc(NC(=O)Nc2ccc(-c3nc(N4CCOCC4)c4cc(F)c(-c5cccnc5F)cc4n3)cc2)cc1 [Example 107, 4-(3-(4-(6-fluoro-7-(2-fluoropyridin-3-yl)-4-morpholino-quinazolin-2-yl)phenyl)ureido)-N,N-dimethyl-benzamide] | < 50 | < 50 | 201 to 10000 | 201 to 10000
CN(C)C(=O)c1ccc(NC(=O)Nc2ccc(-c3nc(N4CCOCC4)c4cc(F)c(-c5cccnc5F)cc4n3)cn2)cc1 [Example 112, 4-(3-(5-(6-fluoro-7-(2-fluoropyridin-3-yl)-4-morpholino-quinazolin-2-yl)pyridin-2-yl)ureido)-N,N-dimethyl-benzamide] | < 50 | 201 to 10000 | 501 to 5000 | < 100
CN(C)C(=O)c1ccc(NC(=O)Nc2ccc(-c3nc(N4CCOCC4)c4ncc(-c5cccc(S(C)(=O)=O)c5)cc4n3)cn2)cc1 [Example 115, N,N-dimethyl-4-(3-(5-(7-(3-(methylsulfonyl)phenyl)-4-morpholino-pyrido[3,2-d]pyrimidin-2-yl)pyridin-2-yl)ureido)-benzamide] | < 50 | 50 to 200 | 201 to 10000 | 201 to 10000
COc1ncc(-c2cnc3c(N4CCOCC4)nc(-c4ccc(NC(=O)Nc5ccc(C(=O)N(C)C)cc5)c(F)c4)nc3c2)cn1 [Example 117, 4-(3-(2-fluoro-4-(7-(2-methoxypyrimidin-5-yl)-4-morpholino-pyrido[3,2-d]pyrimidin-2-yl)phenyl)ureido)-N,N-dimethyl-benzamide] | < 50 | < 50 | 201 to 10000 | < 100
Cc1noc(C)c1-c1cnc2c(N3CCOCC3)nc(-c3ccc(NC(=O)Nc4ccc(C(=O)N(C)C)cc4)cc3)nc2c1 [Example 120, 4-(3-(4-(7-(3,5-dimethylisoxazol-4-yl)-4-morpholino-pyrido[3,2-d]pyrimidin-2-yl)phenyl)ureido)-N,N-dimethyl-benzamide] | < 50 | < 50 | 201 to 10000 | 201 to 10000
Cc1noc(C)c1-c1ccc2c(N3CCOCC3)nc(-c3ccc(NC(=O)Nc4ccc(C(=O)N(C)C)cc4)cc3)nc2c1 [Example 121, 4-(3-(4-(7-(3,5-dimethylisoxazol-4-yl)-4-morpholino-quinazolin-2-yl)phenyl)ureido)-N,N-dimethyl-benzamide] | < 50 | < 50 | 201 to 10000 | 201 to 10000
CN(C)C(=O)c1ccc(NC(=O)Nc2ccc(-c3nc(N4CCOCC4)c4ccc(-c5cncnc5)cc4n3)cc2F)cn1 [Example 123, 5-(3-(2-fluoro-4-(4-morpholino-7-(pyrimidin-5-yl)quinazolin-2-yl)phenyl)ureido)-N,N-dimethylpicolinamide] | 50 to 200 | < 50 | 201 to 10000 | 201 to 10000
CN(C)C(=O)c1ccc(NC(=O)Nc2ccc(-c3nc(N4CCOCC4)c4ncc(-c5cnc(N)nc5)cc4n3)cc2F)cc1 [Example 127, 4-(3-(4-(7-(2-aminopyrimidin-5-yl)-4-morpholinopyrido[3,2-d]pyrimidin-2-yl)-2-fluorophenyl)ureido)-N,N-dimethyl-benzamide] | < 50 | < 50 | 201 to 10000 | 201 to 10000
CC1CN(c2nc(-c3ccc(NC(=O)Nc4ccc(C(=O)N(C)C)cc4)cc3)nc3cc(-c4cncnc4)ccc23)CC(C)O1 (centres unmarked) [Example 128, 4-(3-(4-(4-(2,6-dimethylmorpholino)-7-(pyrimidin-5-yl)quinazolin-2-yl)phenyl)ureido)-N,N-dimethyl-benzamide] | 201 to 10000 | < 50 | 201 to 10000 | < 100
